Assay results taken from US8993717B2, “Gadd45beta targeting agents” (Imperial Innovations Limited, priority 2009, dated 2015).
Several values for one entry are separate records, joined by “and”; a condition that tells them apart may be missing. Equal values may be shown once. Read-outs that look alike come from different tables or passages of the source. Square brackets hold non-standard residues; d marks the D form. Peptide text beside a SMILES is read from it. * marks the point of attachment. Cbz = O=C(OCc1ccccc1)*

Columns and labels:
[1] = Mouse pharmacokinetics study, single i.v. injection; assay type: in vivo, male CD1 mice; settings: for Last Time point: in h (unit assumed); for kel: 0.693/t1/2, table note; for half-life / clearance / Vd: male, CD1, mouse; for C0 / MRT inf / AUC: mouse; for AUC: read-out: AUC to Last; for acute toxicity in mice: single i.v. dose 10 mg/kg
Procedure: Z-DTP2 and Z-mDTP3 were administered intravenously to mice. Blood samples were collected at up to 7 time points after intravenous (i.v.) injection of the compounds over 8 hrs, and plasma was analysed by LC-MS/MS to determine the concentration of the compounds at each time point.
Three male CD1 mice, 25-30 grams each, were dosed per administration route per time-point, per compound. The test compound was administered intravenously (at a typical dose level of 10 mg of compound per kg of body weight). Animals were given free access to food throughout the study.
Blood samples were centrifuged to obtain the plasma, which was then transferred to a separate labelled container. Aliquots from the individual time points for the three animals were analysed singly. Proteins were precipitated by adding three volumes of methanol and centrifuging for 30 min at 4° C. Aliquots of 100 μl of the resulting supernatants were diluted with 200 μl of HPLC grade water in wells of a 96-well plate.
Standard curves were prepared in blank plasma matrices and treated in an identical manner to the samples. The plasma samples were quantified by LC-MS/MS, and the concentration of each compound in the plasma were reported in μg/mL.
Pharmacokinetic parameters were calculated employing non-compartmental model analysis, as described in the web site http://www.pharsight.com/main.php
The test compound concentration in plasma samples was measured by LC-MS/MS. The data were quantified using a five-point standard curve over a range of 3-3000 ng/mL.
Proteins were precipitated from 50 μL aliquots of the individual plasma samples by adding 150 μL methanol. Following protein precipitation, plasma samples were centrifuged for 30 min at 4° C. Aliquots of 100 μL of the resulting supernatant were diluted with 200 μL of HPLC grade water in a 96 well plate. The test compound was then quantified by LC-MS/MS from a five-point standard curve prepared by spiking plasma with varying concentrations of test compound dissolved in DMSO over a final concentration range of 3-3000 ng/mL (final DMSO concentration 1%) and treated in an identical manner to the test samples as described above.

BMSCs, PBMNCs and MSCs = experiment: Viability/proliferation of primary untransformed human cells; assay type: cell-based; settings: up to 100 μM; 48 hrs or 144 hrs
Procedure: In order to determine the in vitro therapeutic index of Z-/mDTPs, viability and proliferation assays were also performed with primary untransformed cells of both human and mouse origin, after treatment with either 10 μM or 100 μM of Z-DTP1, Z-DTP2 and Z-DNC. To this end, bone marrow stromal cells (BMSCs) peripheral blood mononuclear cells (PBMNCs) and mesenkymal stem cells (MSCs) were purified from healthy individuals after Ficoll-Hypaque density separation, in accordance with the protocols reported in the reference by Piva R. et all 2008 Blood 111: 2765-2775). BMSCs, PBMNCs, and MSCs cells were then treated for the times indicated and with the peptide concentrations specified in FIGS. 15A and 15B. To further establish the specificity of the cytotoxic activity of Z-/mDTPs for cancer cells, we also used primary B and T lymphocytes purified from the spleen and lymph nodes of mice, respectively, essentially as described in the reference by Shirakawa et al 2010 Cell Mal immunology 1-12. B and T cells were then activated by simulation with 1 ng/mL of LPS for 16 hrs and subsequently treated with 100 μM of Z-DTP1, Z-DTP2 or Z-DNC for 72 hrs as shown in FIG. 15B.

[2] = plasma, iv, 10 mg/kg, 10 mg/kg i.v., male CD1 mice, read-out: Total CL (converted)
[3] = plasma, iv, 10 mg/kg, 10 mg/kg i.v., male CD1 mice, read-out: Vss
[4] = plasma, iv, 10 mg/kg, 10 mg/kg i.v., male CD1 mice, read-out: Vβ
[5] = plasma, iv, 10 mg/kg i.v., male CD1 mice

Compound | Last Time point ([1]; 10 mg/kg i.v., male CD1 mice) | kel [1] | total clearance, times lower than that of Z-DTP2 ([1]; i.v., mice) | half-life ([1]; in vivo, iv, 10 mg/kg, T1/2) | clearance [1, 2] | Vd [1, 3] | Vd [1, 4] | half-life ([1]; plasma, iv, 10 mg/kg, i.v., mice, read-out: initial distributive half-life) | half-life ([1]; plasma, iv, 10 mg/kg, i.v., mice, read-out: terminal half-life (converted)) | clearance ([1]; plasma, iv, 10 mg/kg, i.v., mice, read-out: values of total clearance in the range) | C0 [1, 5] | MRT inf [1, 5] | AUC [1, 5] | acute toxicity in mice [1] | toxicity to normal primary human cells (BMSCs, PBMNCs, MSCs) (BMSCs, PBMNCs and MSCs) | half-life ([1]; plasma, intravenous, text b344, read-out: half-lives in vivo (converted)) | half-life ([1]; plasma, iv, mice, read-out: initial distributive half-life) | half-life ([1]; plasma, iv, mice, read-out: terminal half-life (converted)) | clearance ([1]; plasma, iv, mice, read-out: values of total clearance in the range)
CC(=O)N[C@H](Cc1ccc(O)cc1)C(=O)N[C@H](CCCNC(=N)N)C(=O)N[C@H](Cc1ccccc1)C(N)=O [Compound 17, Ac-D-Tyr-D-Arg-D-Phe-NH2] (Ac-[dY]-[dR]-[dF]-NH2) | 6.667 | kel/t1/2 = 0.693/2.08 = 0.3323 hr^−1 | 3 times | 1.26 h | 0.736 mL/min and 27.1 mL/min/kg | 0.0126 L | 0.0756 L | ~0.0833 h | ~8 h | 22 to 27 mL/min/kg | 29100 ng/mL | 0.281 h | 6430 ng·h/mL | absence of acute toxicity | – | – | – | – | –
N=C(N)NCCC[C@@H](NC(=O)[C@@H](CCC(=O)O)NC(=O)[C@@H](Cc1ccc(O)cc1)NC(=O)OCc1ccccc1)C(=O)N[C@H](Cc1ccccc1)C(N)=O [Compound 9, Z-D-Tyr-D-Glu-D-Arg-D-Phe-NH2] (Cbz-[dY][dE][dR][dF]-NH2) | 8.0 | kel/t1/2 = 0.693/2.08 = 0.3323 hr^−1 | – | 2.08 h | 2.18 mL/min and 78.1 mL/min/kg | 0.126 L | 0.394 L | – | – | – | 8740 ng/mL | 0.973 h | 2080 ng·h/mL | absence of acute toxicity | no toxicity | ~2 h | ~0.0833 h | ~8 h | 66 to 90 mL/min/kg
NC(=O)[C@@H](Cc1ccccc1)NC(=O)[C@@H](Cc1c[nH]cn1)NC(=O)[C@@H](CC(=O)O)NC(=O)[C@@H](Cc1ccc(O)cc1)NC(=O)OCc1ccccc1 [Compound 1, Z-Tyr-Asp-His-Phe-NH2] (Cbz-[dY][dD][dH][dF]-NH2) | – | – | – | – | – | – | – | – | – | – | – | – | – | – | no toxicity | – | – | – | –
